Assay results as given in patent US20180221435A1, “ITCH TREATMENT USING A COMBINATION OF NEUROKININ-1, GASTRIN RELEASING PEPTIDE, AND GLUTAMATE RECEPTOR ANTAGONISTS” (The Regents of the University of California, priority 2013, published 2018).
Entries after “also recorded” stand apart in the source; their conditions may differ.

Columns and labels:
Set-up in all cases: species or system mice
[1] = test system: superficial dorsal horn neurons; assay: In vivo single-unit recording, noxious pinch-evoked responses, spinal superfusion of antagonists; conditions: pinch at end of 1 min superfusion
Method: Akiyama T et al., The Journal of neuroscience: the official journal of the Society for Neuroscience 29(20):6691-6699 (2009)]. Anesthesia was induced by sodium pentobarbital (60 mg/kg ip) and maintained by supplemental injections (10-20 mg/kg/hr). […] A tungsten microelectrode recorded single-unit activity in the lumbar spinal cord. A chemical search strategy [Akiyama T et al., Journal of neurophysiology 102(4):2176-2183 2009; […] Units were classified as wide dynamic range (WDR)-type if they responded in a graded manner to innocuous mechanical stimulation (brushing, cotton wisp) and noxious pinch, or nociceptive-specific (NS) if they responded to noxious pinch (and to the 55 mN von Frey stimulus) but not to the cotton wisp or brush stimuli. […] Akiyama T et al., The Journal of neuroscience: the official journal of the Society for Neuroscience 29(20):6691-6699 (2009)]. […] At the end of the antagonist superfusion, the noxious pinch stimulus was delivered again at the same site on the receptive field. Thirty minutes later, the noxious pinch stimulus was delivered in the same manner. Action potentials were recorded to a computer and counted using Chart software (AD Instruments, Colorado Springs Colo.) and Spike2 software (CED Instruments). […]

[2] = test system: superficial dorsal horn neurons; assay: In vivo single-unit recording, topical AITC-evoked firing, spinal superfusion of antagonists
Method: (§1) Akiyama T et al., The Journal of neuroscience: the official journal of the Society for Neuroscience 29(20):6691-6699 (2009)]. Anesthesia was induced by sodium pentobarbital (60 mg/kg ip) and maintained by supplemental injections (10-20 mg/kg/hr). […] A tungsten microelectrode recorded single-unit activity in the lumbar spinal cord. A chemical search strategy [Akiyama T et al., Journal of neurophysiology 102(4):2176-2183 2009; […] Following mechanical stimulation, histamine (50 μg) was injected id within the same receptive field at a different location via a separate injection cannula. Following the id histamine injection, we tested the effects of antagonists for the receptors of NK1, GRP, or AMPA/kainate in the same manner as described above for chloroquine. […] Following the AITC application, we tested the effects of the NK-1 receptor antagonist, the AMPA/kainate receptor antagonist, or a combination of both antagonists in the same manner as described above for chloroquine. Action potentials were recorded to a computer and counted using Chart software (AD Instruments, Colorado Springs Colo.) and Spike2 software (CED Instruments). […] Mean peak responses elicited by noxious pinch were compared by one way repeated-measures ANOVA followed by post-hoc Bonferroni test, with p<0.05 set as significant. At the end of each experiment, an electrolytic lesion was made at the spinal cord recording site.

[3] = test system: superficial dorsal horn neurons; assay: In vivo single-unit recording, id histamine-evoked firing, spinal superfusion of antagonists
Method: as §1

Question: For `N#Cc1cc2[nH]c(=O)c(=O)[nH]c2cc1[N+](=O)[O-]` [CNQX], which “noxious pinch-evoked response, effect of spinal superfusion” value [1] is on record?
Answer: significantly reduced

Question: What about the “AITC-evoked firing, effect of spinal superfusion” value ([2]; topical AITC 75%) of the same compound?
Answer: significantly reduced

Question: And the “Percentages of dorsal horn units that exhibited a decrease of 70% or more in firing rate following spinal superfusion of antagonists” value ([2]; topical AITC-evoked firing, superfusion 1 min, L-733060 200 μM, CNQX 100 μM)?
Answer: 62% (8/15)

Question: And the “histamine-evoked response of NS units” value ([3]; NS units, vs vehicle)?
Answer: significantly reduced

Question: What about the “histamine-evoked response of WDR units” value ([3]; WDR units, vs vehicle) of the same compound?
Answer: significantly reduced

Question: And the “histamine-evoked firing, effect of spinal superfusion” value ([3]; all units)?
Answer: significantly attenuated histamine-evoked firing to a level not different from that elicited by id injection of vehicle (saline); also recorded: almost completely abolished histamine-evoked firing
